Reference: patent US20080227738A1, “Compositions and methods for cell dedifferentiation and tissue regeneration” (University of Utah Research Foundation, priority 2000, published 2008)

How the values were obtained:
[1] = test system: C2C12 myotubes; assay: Characterization of RNLE activity: pretreated extract, BrdU S phase reentry in C2C12 myotubes; type: cell-based, mouse; details: C2C12 myotubes with RNLE
Procedure: C2C12 myotubes were plated at low density in DM as described above. Regeneration extract was treated in one of three ways: (1) boiled for 5 minutes; (2) digested with 1% trypsin for 30 minutes at 37° C.; or (3) taken through several freeze/thaw cycles. In three separate experiments, the treated extracts were applied to cultured myotubes at a concentration of 0.3 mg/ml with media and extract changed daily. Immediately after the extract was digested with 1% trypsin, the trypsin was inactivated by dilution in DM in which the cells were cultured. In the freeze/thaw experiments, extract activity was tested after both 2 and 3 freeze/thaw cycles. The effect of the pretreated extracts on myotube S phase reentry was assessed after 4 days of treatment by performing BrdU incorporation assays. The results were compared to BrdU incorporation in myotubes cultured in DM containing RNLE (positive control) and myotubes cultured in DM alone or DM containing nonRNLE (negative controls).
The dedifferentiation signal(s) found in the RNLE could belong to a number of different types of biomolecules, including proteins, lipids, nucleic acids, and polysaccharides. To characterize the nature of one or more of the active components of the RNLE, the inventors subjected the extract to a number of different conditions. […]

[2] = Tolerability of inhibitor solution in adult zebrafish; type: in vivo; details: 1.7 μM or 17 μM in fish water, 0.01% DMSO
Procedure: (§1) SU5402 (Ri; SUGEN, South San Francisco, Calif.) was dissolved in dimethylsulfoxide (DMSO) and added to fish water at a final concentration of 1.7 μM or 17 μM (0.01% DMSO). Up to 10 fish were treated in one liter of water, and tanks were maintained in the dark at 31-33° C. with SU5402 solutions replaced every 24 hours.

[3] = test system: platelet-derived growth factor receptor; details: mammalian cells; cited from earlier work
[4] = test system: zebrafish embryos; assay: Application to developing zebrafish embryos; type: in vivo; details: at the IC50 concentration (printed 10-20 μl)
Procedure: The IC50 of Ri with respect to Fgfrl activity in mammalian cells was shown previously to be […] (Mohammadi et al., 1997). […] Such embryos appear remarkably similar to those injected with mRNA encoding a dominant-negative Fgfrl (Griffin et al., 1995).

[5] = test system: zebrafish fin regenerate; assay: BrdU incorporation in regenerating zebrafish fins; type: in vivo; details: 17 μM
Procedure: BrdU was dissolved in PBS and fish were treated at a final concentration of 100 μg/ml. For one experiment, fins were amputated and allowed to regenerate for 18 or 24 hours in the absence or presence of 17 μM Ri, with BrdU present during the final 6 hours of regeneration. To test the effects of Ri on proliferation in the established blastema, fins were first allowed to regenerate for 40 hours. Then, untreated fish regenerated an additional 2 hours before a 6 hour incubation with BrdU, while Ri-treated fish underwent a 2 hour R1 preincubation period before a 6 hour period with both Ri and BrdU.
Fins were collected and fixed in 70% ethanol/2 mM glycine overnight, and 10 μm sections were made from frozen blocks. These sections were stained for BrdU incorporation using a detection kit (Roche; Basel, Switzerland), and counterstained with hematoxylin. Sections from untreated and Ri-treated fins were simultaneously processed and developed. […]
BrdU incorporation was used to analyze DNA replication and cellular proliferation. […] To determine if blastemal cells underwent DNA replication in the presence of Ri, BrdU incorporation in fins briefly treated with Ri during regenerative outgrowth (40-48 hours postamputation) was analyzed. […]

[6] = test system: serine threonine kinases; details: cited from earlier work
[7] = target: T1, insulin receptor (Homo sapiens, UniProt P06213); details: mammalian cells; cited from earlier work
T1 construct: host or cells: mammalian cells (not specified)
T1 sequence (P06213 28-1382): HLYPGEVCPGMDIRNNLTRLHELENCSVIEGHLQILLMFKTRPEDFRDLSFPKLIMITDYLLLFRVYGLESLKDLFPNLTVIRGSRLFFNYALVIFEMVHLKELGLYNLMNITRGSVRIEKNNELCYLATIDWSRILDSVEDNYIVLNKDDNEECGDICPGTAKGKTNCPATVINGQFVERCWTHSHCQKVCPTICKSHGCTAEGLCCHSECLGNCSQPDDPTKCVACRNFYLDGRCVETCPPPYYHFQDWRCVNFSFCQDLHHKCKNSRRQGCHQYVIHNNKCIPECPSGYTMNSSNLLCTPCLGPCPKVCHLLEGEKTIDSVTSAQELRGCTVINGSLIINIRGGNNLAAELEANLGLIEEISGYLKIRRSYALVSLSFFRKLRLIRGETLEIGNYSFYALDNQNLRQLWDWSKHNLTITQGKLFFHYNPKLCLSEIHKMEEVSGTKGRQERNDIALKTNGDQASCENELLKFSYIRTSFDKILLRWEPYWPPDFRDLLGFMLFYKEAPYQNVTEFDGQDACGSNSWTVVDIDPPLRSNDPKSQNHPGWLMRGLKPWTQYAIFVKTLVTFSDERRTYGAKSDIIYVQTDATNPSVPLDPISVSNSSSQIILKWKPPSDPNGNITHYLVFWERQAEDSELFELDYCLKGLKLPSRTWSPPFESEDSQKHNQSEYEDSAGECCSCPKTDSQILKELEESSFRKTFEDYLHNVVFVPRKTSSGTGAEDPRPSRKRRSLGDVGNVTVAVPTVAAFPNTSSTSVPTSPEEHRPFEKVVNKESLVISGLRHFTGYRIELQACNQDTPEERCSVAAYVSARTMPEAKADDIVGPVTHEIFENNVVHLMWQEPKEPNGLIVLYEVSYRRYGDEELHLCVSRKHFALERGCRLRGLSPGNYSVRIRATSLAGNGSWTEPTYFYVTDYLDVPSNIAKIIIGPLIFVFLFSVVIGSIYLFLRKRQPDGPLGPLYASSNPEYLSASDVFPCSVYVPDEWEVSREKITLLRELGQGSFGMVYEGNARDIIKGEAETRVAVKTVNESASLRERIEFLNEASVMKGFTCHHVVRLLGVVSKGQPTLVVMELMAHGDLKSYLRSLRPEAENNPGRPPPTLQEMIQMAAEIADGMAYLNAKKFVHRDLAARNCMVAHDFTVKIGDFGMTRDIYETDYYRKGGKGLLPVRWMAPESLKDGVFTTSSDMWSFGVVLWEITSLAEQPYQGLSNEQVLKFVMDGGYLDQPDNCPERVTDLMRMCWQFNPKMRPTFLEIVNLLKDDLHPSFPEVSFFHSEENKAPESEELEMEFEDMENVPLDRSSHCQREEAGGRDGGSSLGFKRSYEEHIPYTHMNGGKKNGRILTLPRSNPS

[8] = target: Flkl, a vascular endothelial growth factor receptor (Homo sapiens, UniProt P35968); details: cited from earlier work
Chain of Flkl, a vascular endothelial growth factor receptor (P35968 20-1356): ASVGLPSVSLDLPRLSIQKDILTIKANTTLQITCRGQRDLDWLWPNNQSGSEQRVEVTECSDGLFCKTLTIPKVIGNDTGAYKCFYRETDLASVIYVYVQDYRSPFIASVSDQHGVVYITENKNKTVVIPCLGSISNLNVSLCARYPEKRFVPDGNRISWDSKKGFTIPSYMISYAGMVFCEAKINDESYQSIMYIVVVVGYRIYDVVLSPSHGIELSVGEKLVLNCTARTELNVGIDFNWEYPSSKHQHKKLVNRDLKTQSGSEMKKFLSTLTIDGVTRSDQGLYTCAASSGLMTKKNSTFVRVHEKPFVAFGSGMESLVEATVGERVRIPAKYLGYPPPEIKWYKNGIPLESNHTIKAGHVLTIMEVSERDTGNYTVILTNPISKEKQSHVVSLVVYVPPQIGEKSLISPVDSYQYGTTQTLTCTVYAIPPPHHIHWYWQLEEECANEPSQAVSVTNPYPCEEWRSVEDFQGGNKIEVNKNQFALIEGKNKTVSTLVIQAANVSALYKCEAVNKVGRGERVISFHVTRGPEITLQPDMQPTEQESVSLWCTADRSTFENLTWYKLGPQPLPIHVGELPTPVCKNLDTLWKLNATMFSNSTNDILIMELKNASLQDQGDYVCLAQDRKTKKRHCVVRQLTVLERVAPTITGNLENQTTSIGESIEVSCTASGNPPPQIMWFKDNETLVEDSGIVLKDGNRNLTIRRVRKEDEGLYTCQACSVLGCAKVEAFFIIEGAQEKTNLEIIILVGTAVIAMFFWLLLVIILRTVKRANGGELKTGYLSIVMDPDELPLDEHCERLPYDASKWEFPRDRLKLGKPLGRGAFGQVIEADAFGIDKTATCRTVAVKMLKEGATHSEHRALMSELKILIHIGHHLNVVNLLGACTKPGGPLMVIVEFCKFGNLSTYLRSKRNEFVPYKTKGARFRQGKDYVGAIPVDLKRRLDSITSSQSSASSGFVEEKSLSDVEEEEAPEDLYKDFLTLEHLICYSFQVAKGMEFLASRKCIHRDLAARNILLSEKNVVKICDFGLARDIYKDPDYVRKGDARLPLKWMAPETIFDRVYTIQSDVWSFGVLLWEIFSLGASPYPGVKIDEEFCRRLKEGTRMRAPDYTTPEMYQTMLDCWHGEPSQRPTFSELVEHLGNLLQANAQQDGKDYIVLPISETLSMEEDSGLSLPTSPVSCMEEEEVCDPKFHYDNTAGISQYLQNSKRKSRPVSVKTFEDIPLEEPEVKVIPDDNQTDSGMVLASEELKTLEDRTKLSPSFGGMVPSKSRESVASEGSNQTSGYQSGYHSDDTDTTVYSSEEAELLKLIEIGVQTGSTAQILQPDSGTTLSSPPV

[9] = test system: zebrafish fin regenerate; assay: Whole mount in situ hybridization of marker genes in zebrafish fin regenerates; type: in vivo
Source text: To generate antisense RNA probes with a dioxigenin labeling kit (Boehringer Mannheim), a 2.8 kb fgfr1 cDNA fragment, a 1.7 kb fgfr2 cDNA fragment, a 0.6 kb fgfr3 cDNA fragment, a 1.5 kb fgfr4 cDNA fragment (Thisse et al., 1995), a 1.2 kb msxb cDNA fragment, a 2.0 kb msxc cDNA (Akimenko et al., 1995), a 0.6 kb fgf8(ace) cDNA fragment (Reifers et al., 1998), a 2.2 kb fgf4.1 cDNA (Draper et al., 1999), a 2.4 kb wfgf cDNA (Draper et al., 1999), a 3.8 kb β-catenin cDNA (Kelly et al., 1995), a 2.6 kb flkl cDNA fragment (Liao et al., 1997), and a 1.8 kb shh cDNA (Krauss et al., 1993) were used. Fragments containing zebrafish fgfr cDNA sequences were isolated by degenerate PCR using known fgfr tyrosine kinase domain sequences of other species. The assignment of fgfr genes was based on homology comparisons; these sequences have been deposited in Genbank.
Fin regenerates were fixed overnight at 4° C. in 4% paraformaldehyde in phosphate-buffered saline (PBS), washed briefly in 2 changes of PBS, and transferred to methanol for storage at −20° C. Fins were rehydrated stepwise through ethanol in PBS and then washed in 4 changes of PBS-0.1% polyoxyethylenesorbitan monolaurate (Tween-20; PBT). Then, fins were incubated with 10 μg/ml proteinase K in PBT for 30 minutes and rinsed twice in PBT before 20 minutes refixation. After five washes with PBT, fins were prehybridized at 65° C. for one hour in buffer consisting of 50% formamide, 5×SSC (750 mM NaCl, 75 mM sodium citrate, pH 7.0), 0.1% Tween-20, 50 μg/ml heparin, and 500 μg/ml yeast RNA (pH to 6.0 with citric acid), and then hybridized overnight in hybridization buffer including 0.5 μg/ml dioxigenin-labeled RNA probe. Fins were washed at 65° C. for 10 minutes each in 75% hybridization buffer/25% 2×SSC, 50% hybridization buffer/50% 2×SSC, and 25% hybridization buffer/75% 2×SSC, followed by 2 washes for 30 minutes each in 0.2×SSC at 65° C. Further washes for 5 minutes each were done at room temperature in 75% 0.2×SSC/25% PBT, 50% 0.2×SSC/50% PBT, and 25% 0.2×SSC/75% PBT. After a one hour incubation period in PBT with 2 mg/ml bovine serum albumin, fins were incubated for 2 hours in the same solution with a 1:2000 dilution of fin-preabsorbed, anti-dioxigenin antibody coupled to alkaline phosphatase (Boehringer Mannheim). For the alkaline phosphatase reaction, fins were first washed 3 times in reaction buffer (100 mM Tris-HCl pH 9.5, 50 mM MgCl2, 100 mM NaCl, 0.1% Tween-20, 1 mM levamisol) and then incubated in reaction buffer with 1× nitro blue terazolium/5-bromo-4-chloro-3-indolyl-phosphate (NBT/BCIP) substrate. In general, positive signals were obtained in 0.5-3 hours. Following the staining reaction, fins were washed in several changes of PBT and fixed in 4% paraformaldehyde in PBS. To obtain sections of fin regenerates, fins were first mounted in 1.5% agarose/5% sucrose and then incubated in 30% sucrose overnight. Frozen blocks were sectioned at 14 μm and observed using Nomarski optics.
For each probe, at least 7 fins were examined for expression at 0, 6, 12, 18, 24, 48, and 96 hours post-amputation. For 18, 24, and 48 hour timepoints with fgfr1, msxb, msxc, and wfgf probes, 25-100 fins were examined in several different experiments. Experiments with sense strand RNA probes were performed with initial antisense experiments to estimate the specificity of signals. To assess gene expression in pharmacologically treated fins, an equal number of untreated fins were also examined.
To investigate the molecular effects of this outgrowth inhibition by Ri, marker expression was examined following a 24 hour R1 application period. […] Similar effects on msxc expression were observed (n=8). msxb expression was not detected in 24 or 48 hour fin regenerates exposed to R1 for 48 hours (n=18). Thus, Fgf signaling is required for blastema maintenance and regenerative outgrowth, but is not crucial for other processes including melanocyte migration or bone deposition. […]

[10] = target: T2, epidermal growth factor receptor (Homo sapiens, UniProt P00533); details: mammalian cells; cited from earlier work
T2 construct: host or cells: mammalian cells (not specified)
T2 sequence (P00533 25-1210): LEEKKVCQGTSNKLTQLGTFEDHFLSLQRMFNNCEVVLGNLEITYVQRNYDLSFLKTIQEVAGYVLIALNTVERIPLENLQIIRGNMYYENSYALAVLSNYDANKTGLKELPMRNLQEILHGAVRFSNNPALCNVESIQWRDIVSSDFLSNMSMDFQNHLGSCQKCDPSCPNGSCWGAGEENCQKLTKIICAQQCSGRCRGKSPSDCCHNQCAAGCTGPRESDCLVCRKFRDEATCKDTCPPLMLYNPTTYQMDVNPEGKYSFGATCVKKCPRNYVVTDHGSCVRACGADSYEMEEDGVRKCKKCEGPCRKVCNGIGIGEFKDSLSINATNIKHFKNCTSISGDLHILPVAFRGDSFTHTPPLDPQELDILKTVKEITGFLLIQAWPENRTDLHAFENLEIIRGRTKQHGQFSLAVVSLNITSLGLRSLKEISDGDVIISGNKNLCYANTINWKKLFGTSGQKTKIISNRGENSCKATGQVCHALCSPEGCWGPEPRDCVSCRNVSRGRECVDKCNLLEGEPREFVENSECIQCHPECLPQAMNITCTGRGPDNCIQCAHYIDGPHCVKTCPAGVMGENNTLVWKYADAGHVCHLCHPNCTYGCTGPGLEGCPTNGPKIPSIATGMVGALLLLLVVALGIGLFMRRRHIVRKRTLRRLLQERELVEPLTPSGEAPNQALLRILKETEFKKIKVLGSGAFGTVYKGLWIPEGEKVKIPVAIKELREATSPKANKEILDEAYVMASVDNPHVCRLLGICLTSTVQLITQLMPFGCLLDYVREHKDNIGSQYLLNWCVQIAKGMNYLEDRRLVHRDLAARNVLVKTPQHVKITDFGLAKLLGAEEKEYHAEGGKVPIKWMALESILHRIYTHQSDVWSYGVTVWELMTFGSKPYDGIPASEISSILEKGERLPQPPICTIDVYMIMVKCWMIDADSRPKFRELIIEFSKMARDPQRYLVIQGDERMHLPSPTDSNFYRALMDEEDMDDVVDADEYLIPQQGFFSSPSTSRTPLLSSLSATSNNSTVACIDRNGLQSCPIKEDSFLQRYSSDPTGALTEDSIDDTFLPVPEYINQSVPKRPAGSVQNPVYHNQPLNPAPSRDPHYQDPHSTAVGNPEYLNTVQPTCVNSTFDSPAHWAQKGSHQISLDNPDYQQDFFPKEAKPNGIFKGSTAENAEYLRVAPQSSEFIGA

[11] = test system: zebrafish caudal fin regenerate; assay: Zebrafish caudal fin regeneration under Fgfr1 inhibitor treatment; type: in vivo
Procedure: Zebrafish 3-6 months of age were obtained from EKKWill Waterlife Resources (Gibsonton, Fla.) and used for caudal fin amputations. Fish were anaesthetized in tricaine and amputations were made using a razor blade, removing one-half of the fin. Animals were allowed to regenerate for various times in water kept at 31-33° C.; these temperatures facilitate more rapid regeneration than more commonly used temperatures of 25-28° C. (Johnson and Weston, 1995). Fish were then anaesthetized and the fin regenerate was removed for analyses.
as §1
To determine if signaling through Fgfrl is required for regeneration, zebrafish were treated for 96 hours with Ri immediately following amputation. Treatment of zebrafish with 1.7 μM Ri (0.5 mg/liter) inhibited fin regeneration to varying degrees.
To determine if a blastema forms in the absence of Fgf signaling, Ri-treated fin regenerates were examined morphologically.
Because wfgf and fgfr1 expression domains were maintained in the fin regenerate during outgrowth, and as blastemal cell BrdU incorporation was blocked by Ri, Fgf signaling likely participates in blastemal maintenance/regenerative outgrowth. To test this hypothesis, the effects of Ri on ongoing regenerates were examined.

[12] = fins regenerated normally 24 or 48 hours, then 24 hour application, of 18 treated fins
[13] = treated from amputation, msxb: 21 fins, msxc: 8 fins
[14] = 1.7 μM (0.5 mg/liter), 96 hours from amputation, of 10 fins examined
[15] = Ri-treated fin regenerates, morphology

SMILES: Cc1c[nH]c(/C=C2\C(=O)Nc3ccccc32)c1CCC(=O)O [SU5402]
- BrdU: effect of Fgfr inhibitor on RNLE S phase reentry [1]: No effect
- Survival and behavior in inhibitor solution [2]: survived normally and demonstrated no unusual behavior
- Concentration at which platelet-derived growth factor receptor is not blocked [3]: greater than 50 μM
- Effect on developing zebrafish embryos [4]: dramatic truncation of posterior structures
- Proximal mesenchymal cell BrdU labeling ([5]; 12-18 hours and 18-24 hours postamputation): Normal
- Blastemal cell incorporation of BrdU ([5]; brief treatment during regenerative outgrowth, 40-48 hours postamputation): greatly reduced
- Effects on activities of numerous serine threonine kinases [6]: no effects
- Concentration at which insulin receptor is not blocked [7]: greater than 50 μM
- Concentration that inhibits Flkl [8]: 10 to 20 µM
- msxb expression after 48 hour exposure ([9]; 24 or 48 hour fin regenerates exposed for 48 hours, n=18): not detected
- Fins with detectable shh transcripts ([9]; 48 or 72 hour fin regenerates treated for 24 hours, of 18 fins): 0
- Epidermal wfgf expression ([9]; 48 or 72 hour regenerates, 24 hour application, n=16): No significant reduction
- β-catenin expression ([9]; Ri-treated fins, n=7): normal
- Fins with low levels of msxb expression [9, 12]: 8
- Fins with no detectable msxb expression [9, 12]: 10
- msxb and msxc expression, 24 hour regenerates [9, 13]: extremely low or undetectable
- msxb and msxc expression, 48 hour regenerates [9, 13]: undetectable
- Concentration at which epidermal growth factor receptor is not blocked [10]: greater than 50 μM
- Fins that regenerated normally [11, 14]: 4
- Fins with a regenerative block [11, 14]: one
- Fins with slight regenerative defects [11, 14]: 5
- Fin regeneration ([11]; 17 μM (5 mg/liter), 96 hours from amputation, all animals, n=9): complete regenerative blocks
- Blastemal morphogenesis [11, 15]: did not occur
- Wound epidermis over the fin stumps [11, 15]: consistently formed
- Outgrowth of ongoing regenerates ([11]; treatment of 24-72 hour fin regenerates): inhibited further outgrowth
- New bone deposition ([11]; treatment of ongoing fin regenerates): not interrupted
